Experimental data from PubChem BioAssay AID248 (DTP/NCI, 2004).
Values joined by “and” are separate entries in the source; they are usually repeats but may differ in a detail not shown here. Equal entries are not always repeated. Toxic doses and inconclusive results are not listed.

Tested on: L1210 leukemia ip in BDF1 mice, survival T/C
Test: NCI In Vivo Anticancer Drug Screen. Data for tumor model L1210 Leukemia (intraperitoneal) in B6D2F1 (BDF1) mice
Details: endpoint: mean survival time, higher = longer survival
Method in brief: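 Antitumor effect is assessed in tumor-bearing animals. Survival in the compound arm is compared with a vehicle-dosed control arm and expressed as their quotient.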

[1] = dose: 100.0 mg/kg/injection, schedule: Q01DX001 (ip), vehicle: saline
[2] = dose: 200.0 mg/kg/injection, schedule: Q01DX001 (ip), vehicle: saline
[3] = dose: 400.0 mg/kg/injection, schedule: Q01DX001 (ip), vehicle: saline
[4] = dose: 100.0 mg/kg/injection, schedule: Q01DX009 (ip), vehicle: Klucel (hydroxypropylcellulose) (HPC)
[5] = dose: 100.0 mg/kg/injection, schedule: Q04DX003 (ip), vehicle: Klucel (hydroxypropylcellulose) (HPC)
[6] = dose: 200.0 mg/kg/injection, schedule: Q01DX009 (ip), vehicle: Klucel (hydroxypropylcellulose) (HPC)
[7] = dose: 200.0 mg/kg/injection, schedule: Q04DX003 (ip), vehicle: Klucel (hydroxypropylcellulose) (HPC)
[8] = dose: 400.0 mg/kg/injection, schedule: Q04DX003 (ip), vehicle: Klucel (hydroxypropylcellulose) (HPC)

O=c1[nH]c(=S)c2ncn(C3OC(CO)C(O)C3O)c2[nH]1 (stereo not drawn)
T/C [1]: 107 % of control | T/C [2]: 101 % of control | T/C [3]: 104 % of control

c1ccc(-c2ccc([Si](c3ccccc3)(c3ccccc3)c3ccc(-c4ccccc4)cc3)cc2)cc1
T/C (dose: 50.0 mg/kg/injection, schedule: Q01DX009 (ip), vehicle: Klucel (hydroxypropylcellulose) (HPC)): 104 % of control | T/C (dose: 50.0 mg/kg/injection, schedule: Q04DX003 (ip), vehicle: Klucel (hydroxypropylcellulose) (HPC)): 94 % of control | T/C [4]: 93 % of control | T/C [5]: 96 % of control | T/C [6]: 87 % of control | T/C [7]: 98 % of control

CCCCCCCCCCCCCCCC(=O)OCCCCCCCCCCCCC
T/C (dose: 100.0 mg/kg/injection, schedule: Q04DX003 (ip), vehicle: saline with Tween-80): 95 % of control | T/C (dose: 200.0 mg/kg/injection, schedule: Q04DX003 (ip), vehicle: saline with Tween-80): 90 % of control | T/C (dose: 400.0 mg/kg/injection, schedule: Q04DX003 (ip), vehicle: saline with Tween-80): 86 % of control

O=c1cc(O)c2c(O)cc(O)cc2o1
T/C [1]: 96 % of control | T/C [2]: 96 % of control | T/C [3]: 88 % of control

CCC(C(=O)OC)C1CCN(C)C(=O)C12CO2 (stereo not drawn)
T/C (dose: 25.0 mg/kg/injection, schedule: Q01DX001 (ip), vehicle: saline): 93 % of control | T/C (dose: 25.0 mg/kg/injection, schedule: Q04DX003 (ip), vehicle: saline): 95 % of control | T/C (dose: 25.0 mg/kg/injection, schedule: Q04DX003 (oral), vehicle: saline): 100 % of control | T/C (dose: 50.0 mg/kg/injection, schedule: Q01DX001 (ip), vehicle: saline): 104 % of control | T/C (dose: 50.0 mg/kg/injection, schedule: Q04DX003 (ip), vehicle: saline): 95 % of control | T/C (dose: 50.0 mg/kg/injection, schedule: Q04DX003 (oral), vehicle: saline): 98 % of control | T/C [1]: 97 % of control | T/C (dose: 100.0 mg/kg/injection, schedule: Q04DX003 (ip), vehicle: saline): 97 % of control | T/C (dose: 100.0 mg/kg/injection, schedule: Q04DX003 (oral), vehicle: saline): 96 % of control | T/C [2]: 103 % of control | T/C (dose: 200.0 mg/kg/injection, schedule: Q04DX003 (ip), vehicle: saline): 97 % of control | T/C (dose: 200.0 mg/kg/injection, schedule: Q04DX003 (oral), vehicle: saline): 107 % of control

O=C(O)CCC1(CCC(=O)O)SCSCS1
T/C [5]: 93 % of control | T/C [7]: 98 % of control | T/C [8]: 93 % of control

Cc1ccc(NC(=O)OCCCl)cc1
T/C [1]: 117 % of control | T/C [2]: 112 % of control

Cc1ccc(C2OC2(C(=O)c2ccccc2)c2ccccc2)cc1 (stereo not drawn)
T/C [4]: 106 % of control | T/C [5]: 96 % of control | T/C [6]: 108 % of control | T/C [7]: 104 % of control | T/C (dose: 400.0 mg/kg/injection, schedule: Q01DX009 (ip), vehicle: Klucel (hydroxypropylcellulose) (HPC)): 92 % of control | T/C [8]: 98 % of control

Cn1cnc([N+](=O)[O-])c1[Se]c1nc(N)nc2c1ncn2C1OC(CO)C(O)C1O (stereo not drawn)
T/C (dose: 12.5 mg/kg/injection, schedule: Q01DX009 (ip), vehicle: saline): 161 % of control and 165 % of control | T/C (dose: 25.0 mg/kg/injection, schedule: Q01DX009 (ip), vehicle: saline): 189 % of control and 201 % of control | T/C (dose: 50.0 mg/kg/injection, schedule: Q01DX009 (ip), vehicle: saline): 203 % of control and 255 % of control

Brc1cnc[nH]1
T/C (dose: 25.0 mg/kg/injection, schedule: Q01DX009 (ip), vehicle: water): 97 % of control | T/C (dose: 50.0 mg/kg/injection, schedule: Q01DX009 (ip), vehicle: water): 90 % of control | T/C (dose: 100.0 mg/kg/injection, schedule: Q01DX009 (ip), vehicle: water): 102 % of control | T/C (dose: 100.0 mg/kg/injection, schedule: Q04DX002 (ip), vehicle: saline): 100 % of control | T/C (dose: 200.0 mg/kg/injection, schedule: Q04DX002 (ip), vehicle: saline): 95 % of control | T/C (dose: 400.0 mg/kg/injection, schedule: Q01DX009 (ip), vehicle: water): 98 % of control | T/C (dose: 400.0 mg/kg/injection, schedule: Q04DX002 (ip), vehicle: saline): 92 % of control
